The compounds below were run against human VR1 (Homo sapiens, UniProt Q8NER1) (assay: Human VR1 antagonist assay (Ca2+ imaging)). Details: Ca2+ imaging in human VR1 expressing cells; agonist stimulation (capsaicin 300 nM or acid pH 5.8) not given.
Chain of human VR1 (Q8NER1 whole entry): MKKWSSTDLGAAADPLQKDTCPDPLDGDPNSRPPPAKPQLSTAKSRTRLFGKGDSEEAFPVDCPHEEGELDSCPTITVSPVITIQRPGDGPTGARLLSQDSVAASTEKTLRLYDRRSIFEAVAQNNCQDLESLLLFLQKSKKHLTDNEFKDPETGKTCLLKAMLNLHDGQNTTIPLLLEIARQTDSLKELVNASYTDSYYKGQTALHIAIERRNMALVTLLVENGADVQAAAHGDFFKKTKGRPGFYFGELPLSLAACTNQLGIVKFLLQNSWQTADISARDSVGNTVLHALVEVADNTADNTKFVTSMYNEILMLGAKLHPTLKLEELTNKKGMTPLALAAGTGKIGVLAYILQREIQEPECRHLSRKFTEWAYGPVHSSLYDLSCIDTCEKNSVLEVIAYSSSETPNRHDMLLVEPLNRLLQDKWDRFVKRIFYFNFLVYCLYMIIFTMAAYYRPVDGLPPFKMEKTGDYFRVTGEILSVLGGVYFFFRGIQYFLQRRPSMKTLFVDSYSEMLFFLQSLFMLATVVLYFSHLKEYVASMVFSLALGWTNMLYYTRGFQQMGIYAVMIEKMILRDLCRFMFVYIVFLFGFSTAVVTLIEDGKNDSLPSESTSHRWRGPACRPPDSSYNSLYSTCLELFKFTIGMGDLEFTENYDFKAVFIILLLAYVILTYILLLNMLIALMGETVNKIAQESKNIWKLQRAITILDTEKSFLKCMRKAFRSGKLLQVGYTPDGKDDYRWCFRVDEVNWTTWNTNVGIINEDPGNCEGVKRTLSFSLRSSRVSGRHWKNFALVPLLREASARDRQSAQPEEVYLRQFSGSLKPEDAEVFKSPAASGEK
Assay type: cell-based
From the text: VR1 antagonistic activity can be determined by the Ca^2+ imaging assay using human VR1 highly expressing cells. The cells that highly express human VR1 receptors are obtainable from several different conventional methods. The one standard method is cloning from human Dorsal Root Ganglion (DRG) or kidney according to the methods such as described in the journal article; Nature, 389, pp816-824, 1997. Alternatively VR1 receptors highly expressing human keratinocytes are also known and published in the journal article (Biochemical and Biophysical Research Communications, 291, pp124-129, 2002). […] Furthermore, the method to up regulate human VR1 gene, which is usually a silent gene or don't produce detectable level of VR1 receptors, is also available to obtain propriety cells. Such genetic modification method was described in detail; Nat. Biotechnol., 19, pp440-445, 2001.
The cells that express human VR1 receptors were maintained in culture flask at 37° C. in an environment containing 5% CO2 until use in the assay. The intracellular Ca^2+ imaging assay to determine VR1 antagonistic activities were done by following procedures.
The culture medium was removed from the flask and fura-2/AM fluorescent calcium indicator was added to the flask at a concentration of 5 μM in the medium. The flask was placed in CO2 incubator and incubated for 1 hour. Then the cells expressing the human VR1 receptors were detached from the flask follow by washing with phosphate buffer saline, PBS(−) and re-suspended in assay buffer. The 80 μl of aliquot of cell suspension (3.75×10^5 cells/ml) was added to the assay plate and the cells were spun down by centrifuge (950 rpm, 20° C., 3 minutes).
The capsaicin-induced changes in the intracellular calcium concentration were monitored using FDSS 6000 (Hamamatsu Photonics, Japan), a fluorometric imaging system. The cell suspension in Krebs-Ringer HEPES (KRH) buffer (115 mM NaCl, 5.4 mM KCl, 1 mM MgSO4, 1.8 mM CaCl2, 11 mM D-Glucose, 25 mM HEPES, 0.96 mM Na2HPO4, pH 7.3) were pre-incubated with varying concentrations of the test compounds or KRH buffer (buffer control) for 15 minutes at room temperature under the dark condition. Then capsaicin solution, which gives 300 nM in assay mixture, was automatically added to the assay plate by the FDSS 6000.
The Acid-induced changes in the intracellular calcium concentration were monitored using FDSS 6000 (Hamamatsu Photonics, Japan), a fluorometric imaging system. The cell suspension in resting buffer (HBSS supplemented with 10 mM HEPES, pH 7.4) were pre-incubated with varying concentrations of the test compounds or resting buffer (buffer control) for 15 minutes at room temperature under the dark condition. The cells were automatically added the stimulating solution (HBSS supplemented with MES, final assay buffer pH5.8) by the FDSS 6000.
The monitoring of the changes in the fluorescence signals (λex=340 nm/380 nm, λem=510-520 nm) was initiated at 1 minute prior to the addition of capsaicin solution or acidic buffer and continued for 5 minute.
The compounds of the examples were tested in the Human VR1 antagonist assay described above.
Cn1c(=O)[nH]c2ccc(CNC(=O)COc3ccc(C(C)(C)C)c(Cl)c3)cc21 [Example 8, 2-(3-chloro-4-tert-butylphenoxy)-N-[(3-methyl-2-oxo-2,3-dihydro-1H-benzimidazol-5-yl)methyl]acetamide] gave an IC50 of 0.481 µM. With CC(C)(C)c1ccc(OCC(=O)NCc2ccc3[nH]cnc3c2)cc1 [Example 12, N-(1H-benzimidazol-5-ylmethyl)-2-(4-tert-butylphenoxy)acetamide] the IC50 was 0.286 µM. CC(C)(C)c1ccc(OCC(=O)NCc2ccc3[nH]cnc3c2)cc1 [Example 11, 2-(4-tert-butylphenoxy)-N-(1H-benzindazol-5-ylmethyl)acetamide] showed an IC50 of 0.837 µM. Compound CC(NC(=O)COc1cc(F)c(C(C)(C)C)c(F)c1)c1ccc2ncsc2c1 (stereo not drawn) [Example 15, N-[1-(1,3-benzothiazol-6-yl)ethyl]-2-(4-tert-butyl-3,5-difluorophenoxy)acetamide] has an IC50 of 0.071 µM. For CC(C)(C)c1ccc(OCC(=O)NCc2ccc3[nH]c(=O)oc3c2)cc1Cl [Example 10, 2-(3-chloro-4-tert-butylphenoxy)-N-[(2-oxo-2,3-dihydro-1,3-benzoxazol-6-yl)methyl]acetamide], the IC50 was 0.413 µM. In the case of Cn1c(=O)[nH]c2cc(CNC(=O)COc3ccc(C(C)(C)C)c(Cl)c3)ccc21 [Example 7, 2-(4-tert-butyl-3-chlorophenoxy)-N-[(1-methyl-2-oxo-2,3-dihydro-1H-benzimidazol-5-yl)methyl]acetamide], the IC50 is reported as 0.175 µM. With Oc1cc2c(cc1O)CN(C(=S)NCCc1ccc(Cl)cc1)CCC2 [Capsazepine, reference compound] the IC50 was 0.25 to 0.35 µM. Work on CC(C)(C)c1ccc(OCC(=O)NCc2ccc3[nH]c(=O)[nH]c3c2)cc1 [Example 1, 2-(4-tert-Butylphenoxy)-N-[(2-oxo-2,3-dihydro-1H-benzimidazol-5-yl)methyl]acetamide] yielded an IC50 of 0.421 µM. Compound CC(NC(=O)COc1cc(F)c(C(C)(C)C)c(F)c1)c1ccc2[nH]c(=O)[nH]c2c1 (stereo not drawn) [Example 13, 2-(4-tert-Butyl-3,5-difluorophenoxy)-N-[1-(2-oxo-2,3-dihydro-1H-benzimidazol-5-yl)ethyl]acetamide] has an IC50 of 0.05 µM. C[C@@H](NC(=O)COc1cc(F)c(C(C)(C)C)c(F)c1)c1ccc2nn[nH]c2c1 [Example 14, N-[(1R)-1-(1H-1,2,3-Benzotriazol-6-yl)ethyl]-2-(4-tert-butyl-3,5-difluorophenoxy)acetamide] showed an IC50 of 0.031 µM. CC(C)(C)c1c(F)cc(OCC(=O)NCc2ccc3[nH]c(=O)[nH]c3c2)cc1F [Example 3, 2-(4-tert-butyl-3,5-difluorophenoxy)-N-[(2-oxo-2,3-dihydro-1H-benzimidazol-5-yl)methyl]acetamide] showed an IC50 of 0.097 µM. Cn1c(=O)[nH]c2cc(CNC(=O)COc3ccc(C(C)(C)C)cc3)ccc21 [Example 5, 2-(4-tert-butylphenoxy)-N-[(1-methyl-2-oxo-2,3-dihydro-1H-benzimidazol-5-yl)methyl]acetamide] gave an IC50 of 0.462 µM. CC(C)(C)c1ccc(OCC(=O)NCc2ccc3[nH]c(=O)[nH]c3c2)cc1F [Example 2, 2-(4-tert-butyl-3-fluorophenoxy)-N-[(2-oxo-2,3-dihydro-1H-benzimidazol-5-yl)methyl]acetamide] showed an IC50 of 0.111 µM. Work on CC(C)(C)c1ccc(OCC(=O)NCc2ccc3[nH]c(=O)[nH]c3c2)cc1Cl [Example 4, 2-(4-tert-Butyl-3-chlorophenoxy)-N-[(2-oxo-2,3-dihydro-1H-benzimidazol-5-yl)methyl]acetamide] yielded an IC50 of 0.086 µM. Work on CC(C)(C)c1ccc(OCC(=O)NCc2ccc3c(c2)CC(=O)N3)cc1Cl [Example 9, 2-(3-chloro-4-tert-butylphenoxy)-N-[(2-oxo-2,3-dihydro-1H-indol-5-yl)methyl]acetamide] yielded an IC50 of 0.478 µM.

Reference: patent US7514457B2, “Substituted aryloxymethyl bicyclicmethyl acetamide compounds” (Pfizer Inc., priority 2005, dated 2009)
